Article PMC5762204 (Journal of Pharmaceutical Analysis, 2014)

Test: Pharmacokinetic study in rats after oral administration
Format: in vivo
Details: male, Wistar, rat, plasma

| Tmax [h] | half-life [h] | Structure (SMILES) |
| --- | --- | --- |
| 1 | 6.1 ± 0.2 | N[C@@H](CC(=O)N1CCn2c(nnc2C(F)(F)F)C1)Cc1cc(F)c(F)cc1F [Sitagliptin, sitagliptin] |
| 0.75 | 5.6 ± 0.1 | CCC(C)(C)C(=O)O[C@H]1C[C@@H](C)C=C2C=C[C@H](C)[C@H](CC[C@@H]3C[C@@H](O)CC(=O)O3)[C@H]21 [Simvastatin, simvastatin] |
